From PubChem BioAssay AID179 (DTP/NCI, 2004)
Calls of active or inactive are those of the source.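 The calls were made as follows: active = compounds giving half or more protection of infected cells from virus-caused growth loss, again on retest; inactive = the rest.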

Test system: CEM cells HIV-1 protection, formazan growth assay
Assay: NCI AIDS Antiviral Assay
Conditions: for IC50: measured here: growth of uninfected CEM cells
In short: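 Five concentrations of each compound were applied to infected and uninfected human CEM cells. Protection from HIV-1 was judged from growth measured with a soluble formazan assay.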

| SMILES | EC50 [µM] | IC50 [µM] | outcome |
| --- | --- | --- | --- |
| CO[C@@]12[C@@H]3N[C@@H]3CN1C1=C(C(=O)C(N3CCOCC3)=C(C)C1=O)[C@@H]2COC(N)=O | > 200 | > 200 | – |
| CC(C)(C)C1CCC2c3c([nH]c4ccccc34)C3C(=O)N(c4cccc([N+](=O)[O-])c4)C(=O)C3C2C1 (centres undefined) | > 200 | 4.79 | – |
| CCc1cc2c(oc3cc(C)ccc32)c(=O)[nH]1 | > 100 | > 100 | – |
| COc1ccc(C(=C(Cl)c2ccccc2)c2ccc(OC)cc2)cc1 | > 200 | 47.9 | – |
| S=c1oc(CCCCCCCCc2nn(CNc3ccc(Cl)cc3)c(=S)o2)nn1CNc1ccc(Cl)cc1 | – | – | inactive |
| N#Cc1c2n(c3c(=O)n(-c4ccccc4)c(=S)[nH]c13)CCCCC2 | > 151 | > 151 | – |
| Nc1cc2nc(=O)cc3n2c(n1)SC3 | > 67.6 | > 67.6 | – |
| CNS(=O)(=O)NNS(=O)(=O)c1ccc2ccccc2c1 | > 575 | 170 | – |
| Cc1ccc(C23c4ccccc4CCN2C(=O)C3N)cc1 (centres undefined) | > 603 | 117 | – |
| CCN=C(C#N)NCC | > 708 | 257 | – |
| CN(C)c1ccc(C=Nc2ccc(S(N)(=O)=O)cc2)cc1 | > 200 | > 200 | – |
| OCn1nc2c(C3OCCO3)cc3ccccc3n2c1=S | > 117 | 61.7 | – |
| CC(NC(C)(C)C)C(=O)c1cccc(Cl)c1 (centres undefined) | > 200 | > 200 | – |
| O=Cc1ccccc1COC(=O)c1cc(C(=O)OCc2ccccc2C=O)c(C(=O)OCc2ccccc2C=O)cc1C(=O)OCc1ccccc1C=O | > 0.759 | > 0.759 | – |
| CCOC(=O)c1cn(-c2ccccc2)c(=S)n2c1nc1ccccc12 | > 200 | 7.59 | – |
| CC1(C)C(=NN=C(N)N)C(C)(C)C1=NN=C(N)N | > 50.1 | > 50.1 | – |
| CCc1cc(=O)oc2c3c(cc(OC)c12)O[C@H](C)[C@@H](C)C3=O | > 200 | 31.6 | – |
| Cc1nc2c(n1-c1ccc(Br)cc1)C(=O)c1ccccc1C2=O | > 49 | 5.25 | – |
| OCCN1CCN(CCO)Cc2ccccc2OCCOc2ccccc2C1 | > 245 | 97.7 | – |
| CN(C)CCCn1c2c(c3ccccc31)CCCCCC2 | > 200 | 31.6 | – |
| CC1=CC(=O)C(=CN2C(=O)/C(=C\c3cccnc3)NC2=S)C(=O)O1 | > 200 | > 200 | – |
| O=c1ccn(C/C=C/c2ccccc2)c(=S)n1C/C=C/c1ccccc1 | – | – | inactive |

| SMILES | EC50 [µM] | IC50 [µM] | outcome |
| --- | --- | --- | --- |
| N#CC(C(=O)CCCC(=O)Nc1ccccc1[N+](=O)[O-])c1c(Cl)cccc1Cl (centres undefined) | > 309 | > 309 | – |
| ClC(Cl)=CC(Cl)(Cl)C(Cl)(Cl)C(Cl)(Cl)Cl | > 200 | 5.5 | – |
| C(/C=C/c1ccccc1)=Nc1ccc(SSc2ccc(N=C/C=C/c3ccccc3)cc2)cc1 | > 200 | 16.6 | – |
| N#CC(C(=O)/C(=N/N)C(C#N)c1ccccc1)c1ccccc1 (centres undefined) | > 309 | > 309 | – |
| O=c1n(-c2ccccc2)c(=O)n2n1C1CC3c4ccccc4C1C2C31CC1 (centres undefined) | > 35.5 | > 35.5 | – |
| NC(=O)CNC(=O)c1ccccc1SC(=O)OCCCCCl | 26.3 | > 200 | – |
| C(=N\NC1=NCCCN1)/c1ccc(-c2cn3cc(/C=N/NC4=NCCCN4)ccc3n2)cc1 | > 100 | 18.6 | – |
| CC1=CCC2CC1C(C(=O)c1c[nH]c3ccccc13)=NC2(C)C (centres undefined) | > 81.3 | > 81.3 | – |
| O=C(N/N=C/c1ccccc1S(=O)(=O)O)C(=O)N/N=C/c1ccccc1S(=O)(=O)O | > 200 | > 200 | – |
| O=P(O)(O)OP(=O)(O)O.[NH-]CC[NH-].[NH-]CC[NH-].[Pd+2].[Pd+2] | > 200 | 102 | – |
| COc1ccc(-n2c(C)nc3ccc(NC4OCC(OC(C)=O)C(OC(C)=O)C4OC(C)=O)cc3c2=O)cc1 (centres undefined) | > 200 | 123 | – |
| c1ccc(P(c2ccccc2)c2ccc(P(c3ccccc3)c3ccccc3)nn2)cc1 | > 8.51 | > 8.51 | – |
| CC1(C)CCCC2CC2CCC(C)(C)C1=O (centres undefined) | > 200 | 105 | – |
| c1cncc(C2(c3cc4ccccc4[nH]3)COCO2)c1 (centres undefined) | > 200 | 126 | – |
| C=C1CC2(OC1=O)c1ccccc1C=Cc1ccccc12 | > 26.3 | 4.57 | – |
| CN(C)CC(CN(C)C)c1cccc(C(CN(C)C)CN(C)C)n1 | > 741 | > 741 | – |
| O=c1[nH]cc(N=Nc2ccc(S(=O)(=O)Nc3nccs3)cc2)cc1O | > 195 | 170 | – |
| CCCCC(C)CCCC1=C(O)/C(=C/C(=O)O)OC1=O (centres undefined) | 174 | 447 | – |
| Fc1ccc(CN2COc3c(ccc4cccnc34)C2)cc1 | > 200 | 34.7 | – |
| Cn1c(=O)nc2n(-c3ccc(Br)cc3)c3ccccc3nc-2c1=O | – | – | inactive |
| O=C(CN1CCCCC1)CC(O)(C(F)(F)F)C(F)(F)F | > 200 | 66.1 | – |
| COc1ccc(/C=C/C(=O)CCN2CCN(CCC(=O)/C=C/c3ccc(OC)cc3)CC2)cc1 | > 151 | 1.58 | – |

| SMILES | EC50 [µM] | IC50 [µM] | outcome |
| --- | --- | --- | --- |
| Clc1ccc2nc(-c3ccc(Cl)c(Cl)c3)cc(-c3ccccc3)c2c1 | > 200 | > 200 | – |
| CN(C(=O)c1ccccc1)c1ccc2c(c1)C(=O)c1ccccc1C2=O | > 15.1 | > 15.1 | – |
| O=C(CCn1[nH]c(=O)c(Cl)c(Cl)c1=O)NO | > 933 | 832 | – |
| COc1ccc(-c2c3c(n(C4OC(CO)C(O)C(O)C4O)c(=S)c2C#N)CCC3)cc1 (centres undefined) | > 200 | 43.7 | – |
| COC(=O)C1C2C=CC(C2)N1S(=O)(=O)c1ccccc1 (centres undefined) | > 200 | > 200 | – |
| O=C(O)Cc1cc(=O)[nH]n(-c2ccccc2)c1=O | > 200 | > 200 | – |
| CCOP(=O)(/C=C(\Cl)c1ccccc1)OCC | > 129 | > 129 | – |
| Cc1cc2c(c(C=Nc3ccccc3O)c1)OC1(C=C2)Oc2ccccc2C(=O)N1C (centres undefined) | > 200 | 25.1 | – |
| COc1ccc(C(=O)C[P+](c2ccccc2)(c2ccccc2)c2ccccc2)cc1 | > 200 | 33.9 | – |
| CCOC(=O)C1(C/C=C/CCl)CCCC1=O (centres undefined) | > 200 | 10 | – |
| Cc1cc(Br)cc(C)c1NC(=O)C(=O)C(C(=O)c1ccc2ccccc2c1)C1OC(=O)c2ccccc21 (centres undefined) | > 64.6 | 12.9 | – |
| NC1=C(c2nc(-c3ccccc3)cs2)C(c2ccc(Br)cc2)c2c(c3ccccc3oc2=O)O1 (centres undefined) | > 200 | > 200 | – |
| CC(C)=CCNc1ncnc2c1ncn2CCC(=O)OC(C)(C)C | > 200 | 117 | – |
| CN(C)CCSc1cccc(-c2cc(-c3cccc(SCCN(C)C)c3)ncn2)c1 | > 21.9 | 8.71 | – |
| CCC1CC2C(=O)N(c3ccccc3)C(=O)C2c2[nH]c3ccccc3c21 (centres undefined) | – | – | inactive |
| C[Si](C)(C)OC1c2[nH]c3ccccc3c2CN2C(=O)CCC12 (centres undefined) | > 200 | > 200 | – |
| CCOC(=O)C(=CNC(=S)Nc1c(CC)cccc1CC)C(=O)OCC | > 200 | > 200 | – |
| COc1cc(C2c3cc4c(cc3OC(NNC(N)=O)C2C)OCO4)cc(OC)c1OC (centres undefined) | > 200 | 0.331 | – |
| N#Cc1c(Cl)c2cc([N+](=O)[O-])ccc2n2c1nc1ccccc12 | > 20 | 0.813 | – |
| O=C(Nc1ccc(C2=NCCN2)cc1)c1ccc(C(=O)Nc2ccc(C3=NCCN3)cc2)c(O)c1 | 55 | 91.2 | – |
